Laboratory results taken from patent US10130677B2, “Antimicrobial peptide and uses thereof” (priority 2013, dated 2018).
Read-outs that look alike come from different tables or passages of the source.

How the values were obtained:
[1] = system: LPS (E. coli 054)-induced IL-12p40 production; assay: LPS neutralization in whole human blood; type: cell-based
Excerpt: (§1) The term “anti-inflammatory activity” of a polypeptide as used herein refers to inhibiting, reducing or preventing an inflammatory response in a subject that has been infected by microbes, e.g. bacteria, viruses, fungi, and/or parasites. Anti-inflammatory activity of polypeptides of the invention is achieved by inhibiting, reducing or preventing the release of pro-inflammatory microbial compounds, such as lipoteichoic acid (LTA), peptidoglycan (PG) and/or lipopolysaccharides (LPS). Anti-inflammatory activity can be measured by methods known in the art. Examples of such method are a LPS neutralization assay and a LTA neutralization assay as described in the Examples of this application. In such method, a polypeptide of the invention is mixed with a fixed concentration of LPS or LTA, such as 500 ng/ml LPS or 2 mg/ml LTA, and incubated for 30 min. Thereafter, these mixtures were added to diluted fresh human whole blood and 20 hours thereafter the level of cytokines (e.g. 1L-8 for LTA and 1L-12p40 for LPS) in the blood sample are measured by ELISA.
(§2) Peptides were pre-incubated with 500 ng/ml LPS (E. coli 054) or 2 mg/ml LTA (S. aureus, endotoxin-free) or 1×10^9 CFU/ml of UV-killed S. aureus JAR060131 for 30 min at 37° C. Diluted whole human blood was stimulated with the peptide-LPS/LTA/S. aureus mixtures for 20 hours at 37° C. IL-12p40 and IL-8 levels in supernatants were determined using ELISA.

Candida albicans Y-O1 = type: cell-based
Procedure: Peptides were incubated with 1×10^5 cells/ml of a mid-logarithmic culture of Candida albicans Y-O1, without or with addition of pooled human plasma at a final concentration of 50%. Antimicrobial activity is expressed as the 99% lethal concentration (LC99), i.e., the lowest peptide concentration at which ≥99% of cells were killed after 2 hours of incubation at 37° C. under shaking conditions.

bacteria = type: cell-based
Excerpt: The currently known AMPs, including OP-145, still have a few drawbacks. For instance, various bacteria, such as P. aeruginosa, E. faecalis, Proteus mirabilis, Streptococcus pyogenes and S. aureus all secrete proteases that degrade several antimicrobial peptides, such as the cathelicidin LL-37. Thus, protease resistant antimicrobial peptides are advantageous from a therapeutical standpoint. Furthermore, due to potential lytic effect as well as other properties of AMPs against bacterial but also mammalian membranes, one of the challenges in designing new peptides relies on developing AMPs with high specificity against microorganisms such as bacterial or fungal cells as compared to cellular membranes of the infected patient, i.e., a high therapeutic index (minimal hemolytic concentration/minimal antimicrobial activity; MHC/MEC). Another important disadvantage of known AMPs, including OP-145, is that its activity is strongly affected by the presence of plasma components. For instance, for OP-145 the LC99.9 (the lowest peptide concentration which kills ≥99.9% of bacteria) in PBS of 1.6 μM, whereas the LC99.9 in PBS/plasma (1:1) is about 200 μM. This is in particular a disadvantage for systemically administered AMPs.

[2] = system: LTA (S. aureus)-induced IL-8 production; assay: LTA neutralization in whole human blood; type: cell-based; settings: LTA-induced IL-8; blood from one donor
Excerpt: as §1, §2

[3] = system: methicillin resistant S. aureus (MRSA) LUH14616; type: cell-based, Staphylococcus aureus
Procedure: (§3) Peptides were incubated with 1×10^6 CFU/ml of a mid-logarithmic culture of S. aureus JAR060131, methicillin resistant S. aureus (MRSA) LUH14616, Staphylococcus epidermidis RP62a, and Pseudomonas aeruginosa PAO1 in PBS without or with addition of pooled human plasma (Sanquin, Amsterdam, the Netherlands) at a final concentration of 50%. Antimicrobial activity is expressed as the 99.9% lethal concentration (LC99.9), i.e., the lowest peptide concentration which killed ≥99.9% of bacteria after 2 hours of incubation at 37° C. under shaking conditions.

A. niger PagsA-lux = assay: Effect on fungal growth; type: cell-based, Aspergillus niger
Procedure: The effect of the peptides on fungal growth was assessed using Aspergillus niger. Peptides were incubated with 7.5×10^4 spores/ml of A. niger PagsA-lux in PBS without or with addition of pooled human plasma at a final concentration of 25%. As positive control, spores were treated with the antifungal caspofungin (Cancidas). Absorbance was measured over time and at 16 hours, fungal growth was visualized using light microscopy.

[4] = system: UV-killed S. aureus JAR060131-induced IL-8 production; assay: S. aureus neutralization in whole human blood; type: cell-based; settings: UV-killed S. aureus JAR060131-induced IL-8; blood from one donor
Procedure: as §2

[5] = system: S. aureus JAR060131 biofilm formation; type: cell-based, Staphylococcus aureus
Procedure: After solubilization with ethanol, the optical density at 590 nm is determined as a measure of biofilm mass.
Peptides were incubated with 1×10^8 CFU/ml of S. aureus JAR060131 in biofilm-adjusted BM2 in 96-wells polypropylene plates as described in Antimicrob Agents Chemother 2012; 56: 2696-2704. After 24 hours incubation at 37° C., planktonic bacteria were removed by four washes with PBS and biofilms were stained with crystal violet. After solubilization with ethanol, the optical density at 590 nm was determined as a measure of biofilm mass.
To assess the antibiofilm activity of the peptides in the presence of plasma, 96-wells polypropylene plates were coated with plasma by overnight incubation with 20% plasma at 4° C. Wells were washed once with sterile water and inoculated with S. aureus and peptides as described above.

[6] = system: Staphylococcus epidermidis RP62a; type: cell-based
Procedure: as §3

[7] = system: Pseudomonas aeruginosa PAO1; type: cell-based
Procedure: as §3

[8] = 50% plasma, mid-logarithmic culture, median (Table 3)

With “Ac-IGKEFKRIVERIKRFLRELVRPLR-NH2 [OP-145, JIGKEFKRIVERIKRFLRELVRPLRB, reference compound]” the IC90 ([1]; LPS-induced IL-12p40, blood from two donors) was 1.25 nM, the IC50 ([1]; diluted whole human blood, 20 hours) was 0.15 nM and the “antifungal activity against C. albicans Y-O1 (in words)” value (Candida albicans Y-O1; 50% plasma, at 204.8 μM) was “no antifungal activity was observed”. For the same substance, the LC99 (Candida albicans Y-O1; 50% plasma, mean of two experiments) was greater than 204.8 µM, the “antifungal activity against C. albicans Y-O1 (in words)” value (Candida albicans Y-O1; PBS, at 51.2 μM) was “no antifungal activity” and the LC99 (Candida albicans Y-O1; Y-O1, 2 h) was greater than 51.2 µM. The LC99.9 (bacteria; PBS) was 1.6 µM, the LC99.9 (bacteria; PBS/plasma (1:1)) was “about 200 μM” and the IC50 [2] was 0.781 µM. For the same substance, the LC99.9 [3, 8] was 204.8 µM, the LC99.9 ([3]; methicillin resistant LUH14616) was 1.6 µM and the “concentration inhibiting A. niger growth” value (A. niger PagsA-lux; 25% plasma, light micrographs only, 16 hours (FIG. 2)) was 204.8 µM. The “concentration inhibiting A. niger growth (by >99.9%)” value (A. niger PagsA-lux; PBS, optical density (FIG. 1)) was 3.2 µM, the IC50 [4] was 0.195 µM and the IC50 ([5]; JAR060131 biofilm formation, 24 h) was 3200 nM. For the same substance, the IC50 ([5]; plasma-coated wells (FIG. 3B), read-out: concentration inhibiting biofilm formation for 50%) was 3200 nM, the LC99.9 [6, 8] was 204.8 µM and the LC99.9 ([6]; RP62a) was 0.8 µM. The LC99.9 [7, 8] was greater than 204.8 µM and the LC99.9 ([7]; PAO1) was 3.2 µM.
